Results from ChEMBL document CHEMBL6182880, “TCM theory-inspired discovery of DNJ-flavonoid conjugates as broad-spectrum anti-SARS-CoV-2 agents by primarily targeting ER-associated glycoprotein folding process” (Eur J Med Chem, 2025).
pEC50: −log10 of the molar value.

How the values were obtained:
Assay type in all cases: functional, organism-based; call rule not given here
SARS-CoV-2 [1] = experiment: Antiviral activity against SARS CoV-2 pseudovirus transfected in HEK293 cells harboring pLenti-GFP-Luc assessed as inhibition of viral entry into HeLa-ACE2 cells treated for 12 hrs prior to media replacement and measured after 48 hrs by luciferase assay; details: Severe acute respiratory syndrome coronavirus 2, HeLa-ACE2
SARS-CoV-2 [2] = experiment: Antiviral activity against SARS CoV-2 pseudovirus transfected in HEK293 cells harboring pLenti-GFP-Luc assessed as inhibition of viral entry into HeLa-ACE2 cells incubated with cells for 1 to 2 hrs prior to viral infection and measured after 48 hrs by luciferase assay; details: Severe acute respiratory syndrome coronavirus 2, HeLa-ACE2
SARS-CoV-2 [3] = experiment: Antiviral activity against SARS CoV-2 pseudovirus transfected in HEK293 cells harboring pLenti-GFP-Luc assessed as inhibition of viral entry into HeLa-ACE2 cells treated 1 to 6 hrs post-infection and measured after 48 hrs by luciferase assay; details: Severe acute respiratory syndrome coronavirus 2
SARS-CoV-2 [4] = experiment: Antiviral activity against SARS CoV-2 pseudovirus transfected in HEK293 cells harboring pLenti-GFP-Luc assessed as inhibition of viral packing process treated from 12 to 48 hrs post-transfection by luciferase assay; details: Severe acute respiratory syndrome coronavirus 2, HeLa-ACE2
SARS-CoV-2 [5] = experiment: Antiviral activity against SARS CoV-2 pseudovirus transfected in HEK293 cells harboring pLenti-GFP-Luc assessed as inhibition of viral packing process by luciferase assay; details: Severe acute respiratory syndrome coronavirus 2; HeLa-ACE2; time 48.0 hrs

In the case of O=c1cc(-c2ccc(O)c(O)c2)oc2cc(O)cc(OCCCCCCCCCCN3C[C@H](O)[C@@H](O)[C@H](O)[C@H]3CO)c12, the pEC50 (SARS-CoV-2 [1]) was 5.29, the pEC50 (SARS-CoV-2 [2]) was 5.12 and the inhibition (SARS-CoV-2 [3]) was “Not active; Delay Of Time Of Addition Exerted A Time-Dependent Decrease In Viral Entry Inhibition”. For the same molecule, the pEC50 (SARS-CoV-2 [4]) was 5.12 and the inhibition (SARS-CoV-2 [5]) was “Time-dependent-effect”.
